From patent US8129402B2 (priority 2002, dated 2012)

Target: PrP^sc in ScN2a-22L cells (Mus musculus, UniProt P04925)
Type: cell-based
Settings: ScN2a-22L cells, NIH Image J quantification

PrP^sc in ScN2a-22L cells, sequence (P04925 23-230 limits assumed): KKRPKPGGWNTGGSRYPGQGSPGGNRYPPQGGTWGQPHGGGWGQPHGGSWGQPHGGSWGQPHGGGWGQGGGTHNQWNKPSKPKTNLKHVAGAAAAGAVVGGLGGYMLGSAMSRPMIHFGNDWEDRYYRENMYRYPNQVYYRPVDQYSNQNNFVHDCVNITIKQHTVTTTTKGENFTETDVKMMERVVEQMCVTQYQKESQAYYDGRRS

For `CN(C)CCCN1c2ccccc2Sc2ccc(Cl)cc21` [chlorpromazine], the “inhibition of the accumulation of PrPsc (resistant to proteinase K)” value was 96%.
